# Results as given in patent US20090247558A1, “USE OF THE CRH (CORTICOTROPIN RELEASING HORMONE) - UCN (UROCORTIN) SYSTEM IN THE TREATMENT OF INFLAMMATORY DISEASES” (priority 2002, published 2009).
# Numbering of substitutions follows the chain as printed. Entries after “also recorded” stand apart in the source; their conditions may differ. No end group written: not given here.
# Columns and labels:
# [1] = system: LPS-induced endotoxin shock in Balb/c mice
# Protocol: Male 20- to 25-g Balb/c mice 8 to 10 weeks old were used. They were kept in our animal facility for at least one week prior to each experiment to allow adjustment and confirmation of their health. Each animal received rodent laboratory chow and water ad libitum. The CRH-R1 antagonist used was provided by the Pediatric and Reproductive Endocrinology Branch, NICHD, NIH, Bethesda, Md. Antalarmin was initially dissolved into 100% ethanol at a concentration of 200 mg/ml and then diluted in a 1:1 ratio with Cremaphor EL (Sigma), and finally brought to a working stock of 2 mg/ml antalarmin in 10% ethanol and 10% Cremaphor EL in sterile water. E coli lipopolysaccharide (serotype 0111:B4, cat. # L2630) and Salmonella enteritidis lipopolysaccharide (cat. # L6011) were purchased from Sigma. The antibodies and the reagents for the TNF-α, IL-1β and IL-6 determination were purchased from R&D (NE, USA).
# For the determination of the LD50 groups composed of five mice were injected intraperitoneally (i.p) with either 200, 400, 600, 700 or 1000 μg/mouse of Salmonella-derived LPS (Sigma) dissolved in PBS at a concentration of 10 mg/ml. Survival of animals was monitored for a period of seven days. The same protocol was used for E. coli-derived LPS (O111:B4). To determine the effect of antalarmin in the survival of mice injected with LPS, 40 mice were divided in four different groups; the first group received antalarmin at a concentration of 20 mg/kg of body weight; the second received antalarmin at 20 mg/kg of body weight and LPS at a concentration of 0.7 mg per 25 g of body weight; the third group received LPS and the antalarmin diluent while the fourth group received the antalarmin diluent alone.
# CRH-R1 receptor [2] = target: T1, CRH-R1 receptor (Mus musculus, UniProt P35347); conditions: cited from earlier work
# T1 construct: monocyte/macrophage cells which express both the CRH-R1 and the CRH-R2 receptors on the surface; endogenous in cells; host or cells: macrophages in vitro (RAW 264.7 or Balb/c peritoneal macrophages, inferred)
# T1 sequence (P35347 24-415): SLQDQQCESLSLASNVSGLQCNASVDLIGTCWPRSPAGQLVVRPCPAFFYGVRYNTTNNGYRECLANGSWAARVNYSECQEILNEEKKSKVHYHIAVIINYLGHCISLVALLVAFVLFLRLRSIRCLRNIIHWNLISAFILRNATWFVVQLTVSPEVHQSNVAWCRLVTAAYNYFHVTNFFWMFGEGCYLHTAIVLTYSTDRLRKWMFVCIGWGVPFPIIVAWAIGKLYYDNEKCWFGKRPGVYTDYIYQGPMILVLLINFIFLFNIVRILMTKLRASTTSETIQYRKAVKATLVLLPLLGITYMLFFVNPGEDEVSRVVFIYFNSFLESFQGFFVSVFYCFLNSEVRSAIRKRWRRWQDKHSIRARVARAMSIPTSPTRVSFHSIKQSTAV
# [3] = system: LPS-induced endotoxin shock in Balb/c mice; experiment: Serum proinflammatory cytokines (ELISA) in LPS-induced endotoxin shock; type: in vivo; conditions: for TNF-α level / IL-6 level / IL-1β level: antalarmin pre-treated vs LPS alone; for IL-6 level / IL-1β level: 4 hours after LPS; for IL-1β level: p=0.013
# Protocol: (§1) Each time point and treatment group was composed of five animals per experiment. Sera were collected and frozen until used for cytokine determination by ELISA according to manufacturer (R&D, NE, USA). Similarly, cell culture supernatants were collected 24 hours following stimulation and stored at −70° C. until analyzed. Corticosterone was measured by RIA in serum collected 1 hour following LPS administration. Five animals per treatment were used. Sera were frozen at −70° C. and analyzed as recommended by the manufacturer (ICN, USA).
# CRH-R1 receptor [4] = target: T2, CRH-R1 receptor (Rattus norvegicus, UniProt P35353); conditions: PC12 rat pheochromocytoma cells; cited from earlier work
# T2 construct: endogenous in cells; host or cells: PC12 rat pheochromocytoma cells
# T2 sequence (P35353 24-415): T1 sequence (P35347 24-415) with Q6R, S9N, A13T, I95V, Y229H
# Balb/c mice = experiment: Determination of the LD50 of LPS i.p.; type: in vivo
# CRH-R2 receptor = target: T3, CRH-R2 receptor (Mus musculus, UniProt Q60748); conditions: cited from earlier work
# T3 construct: monocyte/macrophage cells which express both the CRH-R1 and the CRH-R2 receptors on the surface; endogenous in cells; host or cells: macrophages
# RAW264.7 cells [5] = experiment: LPS-induced cytokine secretion from RAW264.7 macrophages (ELISA); type: cell-based, mouse
# Protocol: (§2) RAW 264.7 cells were cultured in Dulbecco's Modified Eagle Medium supplemented with 10% fetal calf serum (FCS), 10 mM L-glutamine, 100 U/ml penicillin, 0.1 mg/ml streptomycin (all purchased by Gibco), at 5% CO2 and 37° C. Cells were plated in 25 cm^2 flasks one day prior to stimulation. Cells were then stimulated with 10 μg/ml Ecoli-derived LPS (serotype 0111:B4, cat. # L2630, Sigma) and recombinant CRH (Sigma) at a concentration of 10^−8 M.
# as §1, with “Serum from trunk blood was collected as follows: a) for the determination of TNF-α 1 hour after LPS administration and b) at 4 hours for the determination of IL-1β or IL-6 levels. Each” for “Each”
# [6] = system: thioglycollate-elicited peritoneal macrophages; experiment: Cytokine mRNA in thioglycollate-elicited peritoneal macrophages, RT-PCR; type: cell-based, Balb/c mice
# Protocol: A 4% thioglycollate solution was prepared and autoclaved 2 days prior to administration. 1.5 ml of the thioglycollate solution was injected intraperitoneally in BALB/c mice and peritoneal macrophages were isolated by lavage of the peritoneal cavity with Dulbecco's Modified Medium. Cells were then cultured in DMEM supplemented with 10% FCS, 10 mM L-glutamine, 100 U/ml penicillin, 0.1 mg/ml streptomycin (Gibco). Cells were plated at a concentration of 5×10^5/ml and maintained in culture 24 hours prior to stimulation.
# (§3) Total cellular RNA was isolated using Trizol reagent (Gibco). Following reverse transcription (Thermoscript RT, Invitrogen), 1 μl of the cDNA product was amplified by PCR at 33 cycles. […] Intensity of the bands was quantified using TINAscan software.
# (§4) Primers for actin were: sense, 5′-TCAGAAGAACTCCTATGTGG-3′; antisense, 5′-TCTCTTTGATGTCACGCACG-3′, giving a 499 bp product; for Tnf-α were: 5′-CACGCTCTTCTGTCTACTGAACTTCG-3′; 5′-GGCTGGGTAGAGAATGGATGAACACC-3′, giving a 590 bp product; for IL-1β were 5′-GGATGAGGACATGAGCACCT-3′ and 5′-TCCATTGAGGTGGAGAGCTT-3′, resulting in a 196 bp product; for IL-6,5′-TGAAGTTCCTCTCTGCAAGAGACT-3′,5′-TGA GGA AGG CCG TGG TTG T-3′, giving a 200 bp product. […] The quantitation was performed using the “TI-NAscan” software. […]
# RAW264.7 cells [7] = experiment: Cytokine mRNA in RAW264.7 cells, semi-quantitative RT-PCR; type: cell-based, mouse
# Protocol: as §2, §3, §4
# [8] = CRH 1×10^−8 M plus LPS 10 μg/ml, 24 hours, vs LPS alone, p=0.04
# T3 sequence (Q60748 whole entry): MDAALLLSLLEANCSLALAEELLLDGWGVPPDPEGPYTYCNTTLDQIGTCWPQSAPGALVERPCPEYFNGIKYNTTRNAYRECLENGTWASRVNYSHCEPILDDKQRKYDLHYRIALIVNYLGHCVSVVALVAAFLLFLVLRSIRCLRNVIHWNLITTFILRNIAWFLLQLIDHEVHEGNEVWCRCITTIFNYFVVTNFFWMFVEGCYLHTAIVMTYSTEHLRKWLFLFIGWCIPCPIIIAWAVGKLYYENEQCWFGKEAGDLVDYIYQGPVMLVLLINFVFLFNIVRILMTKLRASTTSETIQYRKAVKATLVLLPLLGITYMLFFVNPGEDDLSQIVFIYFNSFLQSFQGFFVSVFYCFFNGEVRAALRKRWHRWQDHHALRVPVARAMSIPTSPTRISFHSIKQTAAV
compound,measurement,setting,value
CCCCN(CC)c1nc(C)nc2c1c(C)c(C)n2-c1c(C)cc(C)cc1C [antalarmin],mice still alive at 18 h,"[1]; E coli-derived LPS 0.7 mg/25 g, antalarmin pre-treatment, all animals with LPS alone had died",72%
same,overall survival,"[1]; E coli-derived LPS, in the presence of antalarmin, p=0.002, observed 7 days",significantly improved
same,animals that had died at 18 hours,"[1]; Salmonella enteritidis-derived LPS 0.7 mg/25 g i.p., antalarmin 20 mg/kg IP 1.5 h prior to LPS, LPS alone 60%",20%
same,effect on the enhancing effect of CRH,"CRH-R1 receptor [2]; macrophages in vitro, LPS",blocked completely
same,TNF-α level,"[3]; 1 h after LPS, p=0.001",significantly reduced
same,TNF-α level,"[3]; 2 hours after LPS injection, p<0.001",significantly lower
same,IL-6 level,[3]; p<0.001,significantly lower
same,IL-6 level,"[3]; p<0.001, listed as Antalarmin",significantly reduced
same,IL-1β level,[3],significantly lower
same,IL-1β level,[3]; listed as Antalarmin,significantly reduced
same,IL-6 level of LPS treated animals compared with LPS plus antalarmin treated mice,"[3]; 6 hours after LPS, p<0.001, value describes LPS alone relative to LPS plus antalarmin",significantly higher
same,IL-1β level of LPS treated animals compared with LPS plus antalarmin treated mice,"[3]; 6 hours after LPS, p<0.01, value describes LPS alone relative to LPS plus antalarmin",significantly higher
same,"effect on CRH-mediated effects (p38, Fas ligand, apoptosis)",CRH-R1 receptor [4],blocks all
Lipopolysaccharide [LPS],animals survived,Balb/c mice; LPS 0.2 mg/25 g i.p.,One hundred
same,animals survived,Balb/c mice; LPS 0.4 mg/25 g i.p.,80%
same,animals survived,Balb/c mice; LPS 0.6 mg/kg i.p. (so in the source),40%
same,animals survived,Balb/c mice; LPS 0.7 mg/25 g i.p.,none
same,animals survived,Balb/c mice; LPS 1 mg/25 g i.p.,none
same,LD100,"Balb/c mice; LPS i.p., mice",≥ 0.7 mg per 25 g of body weight
same,LD50,"Balb/c mice; LPS i.p., mice, survival monitored seven days",0.5 mg per 25 g body weight
"Urocortin II (IVLSLDVPIGLLQILLEQARARAAREQATTNARILARVGHC; ends and bridges not checked; UniProt Q96RP3 72-112, looked up) [CRH-related peptide that induces macrophage apoptosis via the CRH-R2 receptor]",apoptosis on macrophages,CRH-R2 receptor,induce apoptosis
corticotropin-releasing hormone [CRH],inflammatory response to lipopolysaccharide (LPS) of macrophages,CRH-R1 receptor [2]; in vitro,enhances
same,LPS-induced IL-1β secretion,"RAW264.7 cells [5]; CRH 1×10^−8 M plus LPS 10 μg/ml, 24 hours, vs LPS alone, p=0.01",potentiates; also recorded: significantly augmented
same,LPS-induced IL-6 secretion,RAW264.7 cells [5]; [8],potentiates; also recorded: significantly augmented
same,LPS-induced TNF-α secretion,RAW264.7 cells [5]; [8],significantly higher; also recorded: significantly augmented
same,"cytokine secretion, CRH alone",RAW264.7 cells [5]; CRH 1×10^−8 M without LPS,only a minimal effect
same,LPS-induced pro-inflammatory cytokine expression,[6]; CRH plus LPS,augments; also recorded: significantly augmented
same,"TNF-α, IL-1β or IL-6 transcription, CRH alone",[6]; CRH without LPS,unable to induce
same,"LPS-induced cytokine transcription (IL-1β, TNF-α, IL-6 mRNA)","RAW264.7 cells [7]; CRH plus LPS, densitometry normalized versus actin",further potentiates; also recorded: strongly augmented
same,"transcription of IL-1β, TNF-α, or IL-6, CRH alone",RAW264.7 cells [7]; CRH without LPS,induces expression; also recorded: minimal transcription
same,Fas ligand production,CRH-R1 receptor [4],stimulates
same,apoptosis,CRH-R1 receptor [4],induces apoptosis
same,p38 mitogen-activated protein kinase,CRH-R1 receptor [4],activates
sauvagine-30,effect on Urocortin / Urocortin II induced macrophage apoptosis,CRH-R2 receptor,completely abolishes
